Patent US7101849B1 (The University of Queensland, priority 1998, dated 2006)

Experiments:
peripheral channels = settings: in vivo; cited from earlier work
N-type calcium channels = N-type calcium channels (Homo sapiens, UniProt Q00975); settings: cited from earlier work
P/Q-type channels = P/Q-type channels (Homo sapiens, UniProt O00555); settings: cited from earlier work
N-type calcium channel = N-type calcium channel (Rattus norvegicus, UniProt Q02294); type: binding
N-type calcium channel, sequence (Q02294 whole entry, looked up): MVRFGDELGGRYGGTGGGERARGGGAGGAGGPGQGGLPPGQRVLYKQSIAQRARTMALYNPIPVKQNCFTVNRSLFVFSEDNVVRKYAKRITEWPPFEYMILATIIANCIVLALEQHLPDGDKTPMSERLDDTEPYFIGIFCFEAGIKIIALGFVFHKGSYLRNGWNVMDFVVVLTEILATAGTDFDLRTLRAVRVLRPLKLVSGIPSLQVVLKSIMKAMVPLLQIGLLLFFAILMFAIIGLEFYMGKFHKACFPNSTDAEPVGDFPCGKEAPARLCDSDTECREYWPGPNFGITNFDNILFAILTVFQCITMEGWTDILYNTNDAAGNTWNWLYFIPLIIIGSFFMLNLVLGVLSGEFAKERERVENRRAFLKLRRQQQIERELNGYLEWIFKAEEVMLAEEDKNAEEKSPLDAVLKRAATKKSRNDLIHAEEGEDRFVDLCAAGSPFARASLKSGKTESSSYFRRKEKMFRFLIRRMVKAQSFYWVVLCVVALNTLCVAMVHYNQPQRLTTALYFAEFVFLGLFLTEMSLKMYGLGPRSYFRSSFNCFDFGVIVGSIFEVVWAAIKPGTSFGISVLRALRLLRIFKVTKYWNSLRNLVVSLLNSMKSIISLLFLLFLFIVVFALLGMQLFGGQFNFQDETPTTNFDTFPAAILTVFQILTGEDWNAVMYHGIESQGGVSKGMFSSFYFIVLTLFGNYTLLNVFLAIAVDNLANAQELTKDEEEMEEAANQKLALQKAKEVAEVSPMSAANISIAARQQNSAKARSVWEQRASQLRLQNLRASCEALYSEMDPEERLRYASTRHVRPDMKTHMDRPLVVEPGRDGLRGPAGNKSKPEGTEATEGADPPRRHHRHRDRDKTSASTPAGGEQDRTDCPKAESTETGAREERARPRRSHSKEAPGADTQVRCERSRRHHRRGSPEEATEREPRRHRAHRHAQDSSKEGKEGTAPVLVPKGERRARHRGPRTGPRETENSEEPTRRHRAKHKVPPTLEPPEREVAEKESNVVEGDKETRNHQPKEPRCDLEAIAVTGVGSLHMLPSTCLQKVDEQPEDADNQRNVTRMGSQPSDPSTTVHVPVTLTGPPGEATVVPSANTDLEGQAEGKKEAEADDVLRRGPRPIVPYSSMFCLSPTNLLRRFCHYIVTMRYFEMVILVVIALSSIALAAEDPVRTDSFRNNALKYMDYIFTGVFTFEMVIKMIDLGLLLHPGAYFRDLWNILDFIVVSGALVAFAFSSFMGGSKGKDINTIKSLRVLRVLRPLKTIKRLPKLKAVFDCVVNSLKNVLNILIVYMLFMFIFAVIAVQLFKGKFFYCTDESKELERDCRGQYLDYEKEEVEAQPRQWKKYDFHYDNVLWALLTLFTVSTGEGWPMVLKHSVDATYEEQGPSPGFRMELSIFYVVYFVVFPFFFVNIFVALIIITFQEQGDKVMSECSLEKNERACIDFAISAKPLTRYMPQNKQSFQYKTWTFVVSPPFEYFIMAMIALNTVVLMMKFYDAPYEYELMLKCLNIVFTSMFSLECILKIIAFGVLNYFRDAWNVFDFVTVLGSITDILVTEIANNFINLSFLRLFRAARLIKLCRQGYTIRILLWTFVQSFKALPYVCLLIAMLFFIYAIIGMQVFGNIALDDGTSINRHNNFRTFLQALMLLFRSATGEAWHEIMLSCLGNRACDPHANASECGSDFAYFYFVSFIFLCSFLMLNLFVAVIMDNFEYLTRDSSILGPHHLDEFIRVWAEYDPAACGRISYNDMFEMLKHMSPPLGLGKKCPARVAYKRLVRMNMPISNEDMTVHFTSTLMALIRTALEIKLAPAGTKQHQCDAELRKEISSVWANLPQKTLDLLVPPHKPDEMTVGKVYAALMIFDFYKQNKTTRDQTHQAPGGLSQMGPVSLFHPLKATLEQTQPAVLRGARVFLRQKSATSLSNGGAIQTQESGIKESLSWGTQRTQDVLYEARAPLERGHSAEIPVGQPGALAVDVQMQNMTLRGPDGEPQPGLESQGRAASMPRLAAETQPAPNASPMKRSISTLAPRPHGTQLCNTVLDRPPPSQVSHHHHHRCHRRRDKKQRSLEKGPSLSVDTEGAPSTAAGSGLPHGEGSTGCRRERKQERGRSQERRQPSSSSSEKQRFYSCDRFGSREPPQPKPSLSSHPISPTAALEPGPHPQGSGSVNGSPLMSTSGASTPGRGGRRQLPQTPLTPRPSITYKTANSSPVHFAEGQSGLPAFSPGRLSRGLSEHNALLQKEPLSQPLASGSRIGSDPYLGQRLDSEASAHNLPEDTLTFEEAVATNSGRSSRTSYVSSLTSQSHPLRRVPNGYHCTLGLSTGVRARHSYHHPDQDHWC

N-type calcium channels, sequence (Q00975 whole entry, looked up): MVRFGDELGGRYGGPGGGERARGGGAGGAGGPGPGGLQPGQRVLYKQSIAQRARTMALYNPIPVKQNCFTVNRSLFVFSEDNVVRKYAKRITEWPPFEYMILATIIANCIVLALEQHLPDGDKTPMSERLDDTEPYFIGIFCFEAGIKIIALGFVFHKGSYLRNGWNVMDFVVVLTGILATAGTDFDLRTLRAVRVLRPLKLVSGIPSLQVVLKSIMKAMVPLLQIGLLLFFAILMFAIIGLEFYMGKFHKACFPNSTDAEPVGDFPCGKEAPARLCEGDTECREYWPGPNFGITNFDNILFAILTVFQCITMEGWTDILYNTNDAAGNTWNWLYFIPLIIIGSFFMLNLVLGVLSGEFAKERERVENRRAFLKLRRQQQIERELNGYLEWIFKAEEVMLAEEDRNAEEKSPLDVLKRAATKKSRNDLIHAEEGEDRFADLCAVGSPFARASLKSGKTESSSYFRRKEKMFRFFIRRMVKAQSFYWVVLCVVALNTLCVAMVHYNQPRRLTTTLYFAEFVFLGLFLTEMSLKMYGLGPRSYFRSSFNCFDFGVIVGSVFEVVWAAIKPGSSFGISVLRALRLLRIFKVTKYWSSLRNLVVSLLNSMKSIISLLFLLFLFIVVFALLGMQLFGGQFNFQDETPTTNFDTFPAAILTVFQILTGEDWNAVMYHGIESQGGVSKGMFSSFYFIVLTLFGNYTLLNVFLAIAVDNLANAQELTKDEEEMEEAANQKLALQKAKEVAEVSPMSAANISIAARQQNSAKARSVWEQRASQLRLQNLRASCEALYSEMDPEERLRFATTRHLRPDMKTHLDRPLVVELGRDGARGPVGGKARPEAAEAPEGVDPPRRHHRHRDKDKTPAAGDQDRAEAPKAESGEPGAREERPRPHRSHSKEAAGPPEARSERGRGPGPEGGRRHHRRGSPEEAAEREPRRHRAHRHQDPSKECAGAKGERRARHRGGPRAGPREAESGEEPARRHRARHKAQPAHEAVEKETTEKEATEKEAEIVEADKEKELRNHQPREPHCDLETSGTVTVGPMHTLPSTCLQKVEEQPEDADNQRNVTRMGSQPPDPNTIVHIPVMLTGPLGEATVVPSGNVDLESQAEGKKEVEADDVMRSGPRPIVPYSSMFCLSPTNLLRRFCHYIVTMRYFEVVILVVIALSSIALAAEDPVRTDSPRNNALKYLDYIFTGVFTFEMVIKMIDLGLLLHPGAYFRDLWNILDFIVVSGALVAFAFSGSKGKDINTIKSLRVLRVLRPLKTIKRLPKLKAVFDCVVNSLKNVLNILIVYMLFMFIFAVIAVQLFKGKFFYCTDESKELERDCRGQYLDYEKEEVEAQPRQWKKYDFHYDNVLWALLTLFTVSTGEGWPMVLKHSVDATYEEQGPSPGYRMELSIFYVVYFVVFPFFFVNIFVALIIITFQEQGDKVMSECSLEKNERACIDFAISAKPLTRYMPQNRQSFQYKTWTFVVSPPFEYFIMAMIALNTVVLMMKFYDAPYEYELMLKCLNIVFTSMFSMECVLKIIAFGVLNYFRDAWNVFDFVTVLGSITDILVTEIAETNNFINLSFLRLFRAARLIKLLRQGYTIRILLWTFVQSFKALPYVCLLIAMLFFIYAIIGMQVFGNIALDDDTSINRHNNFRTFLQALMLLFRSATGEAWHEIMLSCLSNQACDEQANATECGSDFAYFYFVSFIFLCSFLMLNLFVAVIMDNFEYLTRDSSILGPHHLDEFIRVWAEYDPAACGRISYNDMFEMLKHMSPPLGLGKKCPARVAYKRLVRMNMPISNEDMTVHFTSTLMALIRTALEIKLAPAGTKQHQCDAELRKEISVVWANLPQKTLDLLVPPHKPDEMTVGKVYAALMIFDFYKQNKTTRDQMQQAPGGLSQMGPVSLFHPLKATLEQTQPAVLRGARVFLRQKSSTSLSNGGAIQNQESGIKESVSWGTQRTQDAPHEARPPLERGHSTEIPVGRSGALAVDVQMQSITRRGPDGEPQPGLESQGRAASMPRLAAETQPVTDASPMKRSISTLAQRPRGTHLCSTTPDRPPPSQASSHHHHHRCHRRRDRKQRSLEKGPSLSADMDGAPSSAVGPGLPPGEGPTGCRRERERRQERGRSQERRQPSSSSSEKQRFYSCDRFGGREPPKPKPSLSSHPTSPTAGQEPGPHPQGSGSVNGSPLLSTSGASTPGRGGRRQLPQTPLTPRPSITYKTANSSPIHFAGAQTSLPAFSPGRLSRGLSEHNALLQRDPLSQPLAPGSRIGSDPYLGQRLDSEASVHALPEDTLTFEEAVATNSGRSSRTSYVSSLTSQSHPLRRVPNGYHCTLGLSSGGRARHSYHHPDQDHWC

Molecule	affinity / selectivity for N-type calcium channels (N-type calcium channels)	potency for N-type calcium channel in receptor binding assays (N-type calcium channel)	selectivity for N-type calcium channel over P/Q-type calcium channel in receptor binding assays (N-type calcium channel)	also measured
CSCC[C@@H]1NC(=O)[C@H](CC(C)C)NC(=O)[C@H](CCCNC(=N)N)NC(=O)[C@H](CO)NC(=O)[C@@H]2CSSC[C@@H]3NC(=O)[C@H](CO)NC(=O)CNC(=O)[C@H]([C@@H](C)O)NC(=O)[C@H](CSSC[C@H](N)C(=O)N[C@@H](CCCCN)C(=O)NCC(=O)N[C@@H](CCCCN)C(=O)NCC(=O)N[C@@H](C)C(=O)N[C@@H](CCCCN)C(=O)N2)NC(=O)[C@H](CSSC[C@@H](C(N)=O)NC(=O)[C@H](CCCCN)NC(=O)CNC(=O)[C@H](CO)NC(=O)[C@H](CCCNC(=N)N)NC3=O)NC(=O)[C@H](CC(=O)O)NC(=O)[C@H](Cc2ccc(O)cc2)NC1=O [SNX-111]				hypotension (peripheral channels): cause hypotension
CKGKOAPCRKTMYDCCSGSCGRRGKC [MVIIC]	low affinity			binding to P/Q-type channels (P/Q-type channels): bind strongly
CKSKGAKCSKLMYDCCSGSCSGTVGRC [CVID]		high potency	high selectivity	
CKSKGAKCSRLMYDCCSGSCSGTVGRC [R^10-CVID]		high potency	high selectivity	
CKSOGSSCSOTSYNCCRSCNOYTKRCY [GVIA]	high level of selectivity			antagonism of N-type calcium channels (N-type calcium channels): potent antagonist; reversibility of binding to N-type calcium channels (N-type calcium channels): irreversible
